Results from BigSolDB 2.1.

CCCCCCCC[n+]1ccn(C)c1.O=[N+]([O-])[O-]
solubility (mole fraction)
Conditions	in benzene	in cyclohexane	in m-xylene	in n-heptane	in n-hexane	in n-octane	in n-pentane	in o-xylene	in p-xylene	in toluene
278.15 K	–	–	–	–	–	–	0.000687	–	–	–
283.15 K	–	–	–	–	–	–	0.000816	–	–	–
288.15 K	–	–	–	–	0.000683	–	0.000955	–	–	–
293.15 K	–	0.000775	–	0.000342	0.00078	0.000355	0.0011	–	–	–
298.15 K	0.000303	0.000901	0.00526	0.000407	0.000919	0.000411	0.00127	0.005	0.00308	0.000371
303.15 K	0.000357	0.00106	0.00566	0.000488	0.00113	0.000502	0.00149	0.00529	0.00331	0.00043
308.15 K	0.00041	0.00124	0.00605	0.000586	0.00128	0.000605	–	0.00558	0.00358	0.0005
313.15 K	0.00049	0.00146	0.00645	0.000728	0.00162	0.000733	–	0.00587	0.00383	0.000598
318.15 K	0.000572	0.00169	0.00685	0.000856	0.00184	0.000866	–	0.00616	0.00408	0.000699
323.15 K	0.000661	0.00191	0.00725	0.00101	0.00206	0.00101	–	0.00646	0.00431	0.000806
328.15 K	0.000751	0.00212	0.00765	0.00119	0.00232	0.00123	–	0.00675	0.00458	0.000892
333.15 K	0.00086	0.00244	0.00805	0.00143	0.00271	0.00145	–	0.00704	0.00483	0.00103
338.15 K	0.000981	0.00275	0.00845	0.00166	–	0.00168	–	0.00733	0.00508	0.00117
343.15 K	0.00111	–	0.00885	0.00193	–	0.00198	–	0.00762	0.00533	0.00133

CCCCCC[n+]1ccn(C)c1.O=[N+]([O-])[O-]
solubility (mole fraction)
Conditions	in benzene	in cyclohexane	in m-xylene	in n-heptane	in n-hexane	in n-octane	in n-pentane	in o-xylene	in p-xylene	in toluene
278.15 K	–	–	–	–	–	–	0.000359	–	–	–
283.15 K	–	–	–	–	–	–	0.000397	–	–	–
288.15 K	–	–	–	–	0.000306	–	0.000442	–	–	–
293.15 K	–	0.000304	–	–	0.000362	0.000203	0.000484	–	–	–
298.15 K	0.000219	0.000357	0.00239	–	0.00042	0.000234	0.000534	0.00133	0.000795	0.000278
303.15 K	0.000263	0.0004	0.00271	–	0.000492	0.000268	0.000578	0.00145	0.000896	0.000334
308.15 K	0.000308	0.000446	0.00303	–	0.000575	0.000299	–	0.0016	0.00102	0.00039
313.15 K	0.000382	0.000516	0.00337	0.000268	0.000693	0.000344	–	0.00173	0.00114	0.000482
318.15 K	0.000454	0.000592	0.00376	0.000358	0.000794	0.00038	–	0.00187	0.00128	0.000585
323.15 K	0.000536	0.000674	0.00413	0.00049	0.000895	0.000421	–	0.00198	0.00141	0.000686
328.15 K	0.00061	0.000751	0.00458	0.000629	0.000995	0.000458	–	0.00213	0.00155	0.000776
333.15 K	0.000714	0.000857	0.00505	0.000841	0.00113	0.000518	–	0.00227	0.00169	0.000904
338.15 K	0.000832	0.00097	0.00553	0.00109	–	0.000568	–	0.0024	0.00182	0.00106
343.15 K	0.000962	–	0.00607	0.00142	–	0.000631	–	0.00253	0.00199	0.00123
